Biological target: Adenosine receptor A3 (Bos taurus)
Assay: Displacement of [125I]AB-MECA from adenosine A3 receptors in bovine cortical membranes

CNC(=O)[C@H]1O[C@@H](n2cnc3c(NCc4cccc(I)c4)ncnc32)[C@](C)(O)[C@@H]1O [3,4-Dihydroxy-5-[6-(3-iodo-benzylamino)-purin-9-yl]-4-methyl-tetrahydro-furan-2-carboxylic acid methylamide]
Ki: 240 nM
